Data as given in patent US20200131669A1, “CYCLIC PEPTIDE COMPOUND HAVING HIGH MEMBRANE PERMEABILITY, AND LIBRARY CONTAINING SAME” (Chugai Seiyaku Kabushiki Kaisha, priority 2017, published 2020).
Starred links: 1 amine or outer side, 2 acyl side, 3 side chain; linkers in the order of their positions; H or OH if unused. Positions of bridges follow the written chain, without caps; N, C: chain ends. Non-standard residues stand in square brackets, D forms with d. Residues, ends and D or L forms follow the SMILES beside them. ξ: configuration not given here. *: point of attachment. X19 = CC(C)[C@@H](C(=O)C[C@H](C(=O)[*:2])[C@@H](C)O)N(C)[*:1]; NMeAbu(3,3-F2-piperidino) = CN[C@@H](CCN1CCCC(F)(F)C1)C(=O)O; X4 = O=C([C@@H]1C[C@@H](N2CCC(F)(F)CC2)CN1[*:1])[*:2]; NMePhe(3-Cl) = CN[C@@H](Cc1cccc(Cl)c1)C(=O)O; Tyr(3-F) = N[C@@H](Cc1ccc(O)c(F)c1)C(=O)O; hNle(7,7-F2) = N[C@@H](CCCCC(F)F)C(=O)O; hhPhe = N[C@@H](CCCc1ccccc1)C(=O)O; Gly(N-(CH2)2OEt) = CCOCCNCC(=O)O; Hyp = O=C(O)[C@@H]1C[C@@H](O)CN1; NMeF = CN[C@@H](Cc1ccccc1)C(=O)O; NMeGABA = CN(CCCC(=O)[*:2])[*:1]; NMeI = CC[C@H](C)[C@H](NC)C(=O)O; hPhe = N[C@@H](CCc1ccccc1)C(=O)O; 3Pal = N[C@@H](Cc1cccnc1)C(=O)O; ξThr(3R) = C[C@@H](O)C(N)C(=O)O; Butyl(3-Me,3-OH) = CC(C)(O)CC*; NMeD = CN[C@@H](CC(=O)O)C(=O)O; NMeL = CN[C@@H](CC(C)C)C(=O)O; NMeNva = CCC[C@H](NC)C(=O)O; NMeV = CN[C@H](C(=O)O)C(C)C; NMeAbu = CC[C@H](NC)C(=O)O; NMeS = CN[C@@H](CO)C(=O)O; NMeA = CN[C@@H](C)C(=O)O; Piperidide = C1CCN(*)CC1; dAbu = CC[C@@H](N)C(=O)O; Me2NCH2CH2 = CN(C)CC*; Isopentyl = CC(C)CC*; Sar = CNCC(=O)O; tBu = CC(C)(C)*; CHF2 = FC(F)*

Experiment: Caco-2 membrane permeability, improved method as used in the following Examples (96-well, 20 to 24 h preincubation)
Assay type: in vitro ADME
Details: human, Caco-2, Caco-2
In short: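 Caco-2 monolayers were grown three weeks and preincubated 20–24 h at 37 °C with compound in DMEM+FaSSIF (1% DMSO) apically. The assay then used compound in FaSSIF/HBSS (1% DMSO, pH 6.0) apically and HBSS with 4% BSA (pH 7.4) basally. Basal samples were taken at 180 min for LC/MS, and Papp (cm/sec) was calculated.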
CCO[C@@H]1C[C@H]2C(=O)N[C@@H]([C@@H](C)O)C(=O)N(C)[C@@H](CC(C)C)C(=O)N(C)[C@@H](CC(C)C)C(=O)N(C)[C@@H](CC(C)C)C(=O)N[C@H](C(=O)N3CCCCC3)CC(=O)N[C@H](CC(C)C)C(=O)N(C)[C@@H]([C@@H](C)CC)C(=O)N3CCC[C@H]3C(=O)N(C)[C@@H](CC(C)C)C(=O)N[C@@H](COC(C)(C)C)C(=O)N2C1 [pd385] ([dL][NMeI]P[NMeL]S(tBu)[Hyp](Et)T[NMeL][NMeL][NMeL]D-Piperidide; lactam N-11) showed a Papp A→B at 180 min of 3.4 ×10⁻⁶ cm/s. CC(C)C[C@@H]1NC(=O)[C@H](Cc2ccccc2)N(C)C(=O)[C@@H](C(C)C)NC(=O)C[C@@H](C(=O)N2CCCCC2)NC(=O)[C@H](CC(C)C)N(C)C(=O)[C@H](Cc2cccc(Cl)c2)N(C)C(=O)[C@H](COCCC(C)(C)O)NC(=O)[C@H](CC(C)C)N(C)C(=O)CN(C)C(=O)[C@H]([C@@H](C)O)NC(=O)[C@H](C(C)C)N(C)C1=O [pd434] ([dV][NMeF]L[NMeV]T[Sar][NMeL]S(Butyl(3-Me,3-OH))[NMePhe(3-Cl)][NMeL]D-Piperidide; lactam N-11) showed a Papp A→B at 180 min of 1.7 ×10⁻⁶ cm/s. In the case of CC(C)C[C@@H]1NC(=O)[C@H](Cc2ccccc2)N(C)C(=O)[C@@H](C(C)C)NC(=O)C[C@@H](C(=O)N2CCCCC2)NC(=O)[C@H](C(C)C)N(C)C(=O)[C@H](Cc2ccccc2)N(C)C(=O)[C@H](COC(C)(C)C)NC(=O)[C@H](CCN2CCCC(F)(F)C2)N(C)C(=O)CN(C)C(=O)[C@H]([C@@H](C)O)NC(=O)[C@H](CC(C)C)N(C)C1=O [pd387] ([dV][NMeF]L[NMeL]T[Sar][NMeAbu(3,3-F2-piperidino)]S(tBu)[NMeF][NMeV]D-Piperidide; lactam N-11), the Papp A→B at 180 min is reported as 3.5 ×10⁻⁶ cm/s. For CC[C@H]1C(=O)N[C@@H]([C@@H](C)O)C(=O)N(C)CC(=O)N(C)[C@@H](COCCC(C)C)C(=O)N[C@@H](CC(C)C)C(=O)N(C)[C@@H](Cc2ccccc2)C(=O)N(C)[C@@H](CC(C)C)C(=O)N[C@H](C(=O)N2CCCCC2)CC(=O)N[C@H](C(C)C)C(=O)N(C)[C@@H](Cc2ccccc2)C(=O)N[C@@H](CC(C)C)C(=O)N1C [pd306] ([dV][NMeF]L[NMeAbu]T[Sar][NMeS](Isopentyl)L[NMeF][NMeL]D-Piperidide; lactam N-11), the Papp A→B at 180 min was 1.2 ×10⁻⁶ cm/s. CCC[C@H]1C(=O)N[C@@H](COC(C)(C)C)C(=O)N(C)[C@@H](CC(C)C)C(=O)N(C)[C@@H](CC(C)C)C(=O)N[C@@H](CC(C)C)C(=O)N[C@@H]([C@@H](C)O)C(=O)N2C[C@H](OCC)C[C@H]2C(=O)N[C@@H](Cc2ccccc2)C(=O)N(C)[C@@H](CC(C)C)C(=O)N[C@H](C(=O)N2CCCCC2)CC(=O)N[C@H](C(C)C)C(=O)N1C [pd380] ([dV][NMeNva]S(tBu)[NMeL][NMeL]LT[Hyp](Et)F[NMeL]D-Piperidide; lactam N-11) gave a Papp A→B at 180 min of 3.8 ×10⁻⁶ cm/s. Compound CCOCCN1CC(=O)N(C)[C@@H](CC(C)C)C(=O)N[C@H](C(=O)N2CCCCC2)CC(=O)N(C)[C@@H](C(C)C)C(=O)N[C@@H](CC(C)C)C(=O)N(C)[C@@H](CC)C(=O)N(C)[C@@H](Cc2ccccc2)C(=O)N[C@@H](CC(C)C)C(=O)N(C)[C@@H](Cc2ccccc2)C(=O)N(C)[C@@H](CC)C(=O)N[C@@H]([C@@H](C)O)C1=O [pd417] ([NMeV]L[NMeAbu][NMeF]L[NMeF][NMeAbu]T[Gly(N-(CH2)2OEt)][NMeL]D-Piperidide; lactam N-11) has a Papp A→B at 180 min of 1 ×10⁻⁶ cm/s. Compound CC[C@H](C)[C@H]1C(=O)N[C@H](C(=O)N2CCCCC2)CC(=O)N(C)CC(=O)N(C)[C@@H](Cc2ccccc2)C(=O)N[C@@H](CCCc2ccccc2)C(=O)N(C)[C@@H](CC(C)C)C(=O)N[C@@H]([C@@H](C)O)C(=O)N(C)CC(=O)N(C)[C@@H](Cc2ccccc2)C(=O)N(C)[C@@H](CC(C)C)C(=O)N[C@@H](COC(C)(C)C)C(=O)N1C [pd366] ([Sar][NMeF][hhPhe][NMeL]T[Sar][NMeF][NMeL]S(tBu)[NMeI]D-Piperidide; lactam N-11) has a Papp A→B at 180 min of 1.8 ×10⁻⁶ cm/s. With CC(C)C[C@H]1C(=O)N[C@@H](CCc2ccccc2)C(=O)N(C)[C@@H](Cc2ccccc2)C(=O)N(C)[C@@H](CC(C)C)C(=O)N[C@H](C(=O)N2CCCCC2)CC(=O)N[C@H](C(C)C)C(=O)N(C)[C@@H](C)C(=O)N[C@@H](C(C)C)C(=O)N(C)[C@@H](CC(C)C)C(=O)N[C@@H]([C@@H](C)O)C(=O)N(C)CC(=O)N1C [pd313] ([dV][NMeA]V[NMeL]T[Sar][NMeL][hPhe][NMeF][NMeL]D-Piperidide; lactam N-11) the Papp A→B at 180 min was 2.5 ×10⁻⁶ cm/s. CC(C)CCOC[C@@H]1NC(=O)[C@H](CC(C)C)N(C)C(=O)[C@H](Cc2ccccc2)N(C)C(=O)CN(C)C(=O)[C@H]([C@@H](C)O)NC(=O)[C@H](CC(C)C)N(C)C(=O)[C@H](CCCCC(F)F)NC(=O)[C@H](Cc2ccccc2)N(C)C(=O)CN(C)C(=O)C[C@@H](C(=O)N2CCCCC2)NC(=O)[C@H](CC(C)C)N(C)C1=O [pd338] ([Sar][NMeF][hNle(7,7-F2)][NMeL]T[Sar][NMeF][NMeL]S(Isopentyl)[NMeL]D-Piperidide; lactam N-11) gave a Papp A→B at 180 min of 1.8 ×10⁻⁶ cm/s. For CC(C)C[C@H]1C(=O)N[C@@H](Cc2ccc(OC(F)F)cc2)C(=O)N(C)[C@@H](CC(C)C)C(=O)N(C)[C@@H](Cc2ccccc2)C(=O)N[C@@H](COC(C)(C)C)C(=O)N(C)[C@@H](CC(C)C)C(=O)NC([C@@H](C)O)C(=O)N(C)[C@@H](C)C(=O)N(C)[C@@H](CC(C)C)C(=O)N[C@@H](C(=O)N2CCCCC2)CC(=O)N(C)CCCC(=O)N1C (stereo partly drawn) [pd478] ([NMeGABA][NMeL]Y(CHF2)[NMeL][NMeF]S(tBu)[NMeL][ξThr(3R)][NMeA][NMeL][dD]-Piperidide; lactam N-11), the Papp A→B at 180 min was 1.3 ×10⁻⁶ cm/s. For CC[C@H]1NC(=O)C[C@@H](C(=O)N2CCCCC2)NC(=O)[C@H](CC(C)C)N(C)C(=O)[C@H](Cc2ccccc2)NC(=O)[C@@H]2C[C@@H](N3CCC(F)(F)CC3)CN2C(=O)[C@H]([C@@H](C)O)NC(=O)[C@H](CC(C)C)N(C)C(=O)[C@H](CC(C)C)NC(=O)[C@H](CC(C)C)N(C)C(=O)[C@H](COC(C)(C)C)NC(=O)[C@H](CC(C)C)N(C)C1=O [pd459] ([dAbu][NMeL]S(tBu)[NMeL]L[NMeL]T[X4]F[NMeL]D-Piperidide; lactam N-11), the Papp A→B at 180 min was 1.6 ×10⁻⁶ cm/s. Compound CC(C)CCOC[C@@H]1NC(=O)[C@H](Cc2ccccc2)N(C)C(=O)[C@@H](C)NC(=O)C[C@@H](C(=O)N2CCCCC2)NC(=O)[C@H](CC(C)C)N(C)C(=O)[C@H](Cc2ccccc2)N(C)C(=O)[C@H](COC(C)(C)C)NC(=O)[C@H](CC(C)C)N(C)C(=O)CN(C)C(=O)[C@H]([C@@H](C)O)NC(=O)[C@H](CC(C)C)N(C)C1=O [pd301] ([dA][NMeF]S(Isopentyl)[NMeL]T[Sar][NMeL]S(tBu)[NMeF][NMeL]D-Piperidide; lactam N-11) has a Papp A→B at 180 min of 1.7 ×10⁻⁶ cm/s.

Same assay, conditions: human, Caco-2, Caco-2 (cm/sec)
CC(C)C[C@H]1C(=O)N[C@@H](COC(C)(C)C)C(=O)N(C)[C@@H](Cc2ccccc2)C(=O)N(C)[C@@H](CC(C)C)C(=O)N[C@H](C(=O)N2CCCCC2)CC(=O)N[C@@H](C)C(=O)N(C)[C@@H](Cc2cccc(Cl)c2)C(=O)N[C@@H](C(C)C)C(=O)N(C)[C@@H](C(C)C)C(=O)N[C@@H]([C@@H](C)O)C(=O)N(C)CC(=O)N1C [pd154] (A[NMePhe(3-Cl)]V[NMeV]T[Sar][NMeL]S(tBu)[NMeF][NMeL]D-Piperidide; lactam N-11) showed a Papp A→B at 180 min of 1.4 ×10⁻⁶ cm/s. For CC(C)C[C@@H]1NC(=O)[C@H](Cc2ccccc2)N(C)C(=O)[C@H](COC(C)(C)C)NC(=O)[C@H](Cc2ccccc2)N(C)C(=O)[C@H](C)N(C)C(=O)[C@H](CC(C)C)N(C)C(=O)[C@H](C)N(C)C(=O)C[C@@H](C(=O)N2CCCCC2)N(C)C(=O)[C@H](Cc2ccccc2)N(C)C(=O)[C@H]([C@@H](C)O)CC(=O)[C@H](C(C)C)N(C)C1=O [pd213] ([NMeA][NMeL][NMeA][NMeF]S(tBu)[NMeF]L[X19][NMeF][NMeD]-Piperidide; lactam N-10), the Papp A→B at 180 min was 1.3 ×10⁻⁶ cm/s. CC(C)C[C@@H]1NC(=O)[C@H](Cc2ccccc2)N(C)C(=O)[C@H](C)N(C)C(=O)C[C@@H](C(=O)N2CCCCC2)NC(=O)[C@H](C(C)C)N(C)C(=O)[C@H](Cc2ccccc2)N(C)C(=O)[C@H](COC(C)(C)C)NC(=O)[C@H](CC(C)C)N(C)C(=O)CN(C)C(=O)[C@H](Cc2cccnc2)NC(=O)[C@H](CC(C)C)N(C)C1=O [pd197] ([NMeA][NMeF]L[NMeL][3Pal][Sar][NMeL]S(tBu)[NMeF][NMeV]D-Piperidide; lactam N-11) showed a Papp A→B at 180 min of 3 ×10⁻⁶ cm/s. In the case of CC(C)C[C@@H]1NC(=O)[C@H](C)N(C)C(=O)C[C@@H](C(=O)N2CCCCC2)NC(=O)[C@H](CC(C)C)N(C)C(=O)CN(C)C(=O)[C@H](Cc2ccc(O)c(F)c2)NC(=O)[C@H](CC(C)C)N(C)C(=O)[C@H](C)N(C)C(=O)[C@H](C)NC(=O)[C@H](Cc2ccccc2)N(C)C(=O)[C@H](CC(C)C)N(C)C1=O [pd120] ([NMeA]L[NMeL][NMeF]A[NMeA][NMeL][Tyr(3-F)][Sar][NMeL]D-Piperidide; lactam N-11), the Papp A→B at 180 min is reported as 0.23 ×10⁻⁶ cm/s.

Same assay, conditions: human; Papp; Table 25, cyclic peptides containing Ser(Et-2-NMe2) or Gln(Ms), not in table head; read-out: Caco-2
Compound CC(C)C[C@@H]1NC(=O)[C@H](Cc2ccccc2)N(C)C(=O)[C@H](Cc2ccccc2)N(C)C(=O)[C@H](COCCN(C)C)NC(=O)[C@H](CC(C)C)N(C)C(=O)CCCN(C)C(=O)C[C@@H](C(=O)N2CCCCC2)NC(=O)[C@H](CC(C)C)N(C)C(=O)[C@H](CC(C)C)N(C)C(=O)[C@H]([C@@H](C)O)NC(=O)[C@H](CC(C)C)N(C)C1=O [pd55] ([NMeGABA][NMeL]S(Me2NCH2CH2)[NMeF][NMeF]L[NMeL]T[NMeL][NMeL]D-Piperidide; lactam N-11) has a Papp A→B at 180 min of 0.1 ×10⁻⁶ cm/s.
